This assay in a line: Binding affinity against Opioid receptor delta 1 was determined in brain membrane preparations from male Hartley guinea-pigs.
With `CN1CCC2(CC1)COc1c(O)cccc12` [1'-methylspiro[2,3-dihydrobenzo[b]furan-3,4'-(hexahydropyridine)]-7-ol], the inhibitory constant (Ki) (as a rule, the equilibrium dissociation constant of an inhibitor or competing ligand from its target) is greater than 100000 nM.
Compound `CCC1Oc2c(O)cccc2C12CCN(C)CC2` (stereo not drawn) [2-ethyl-1'-methylspiro[2,3-dihydrobenzo[b]furan-3,4'-(hexahydropyridine)]-7-ol] showed a Ki of 853 nM.
Under `CC1Oc2c(O)cccc2C12CCN(C)CC2` (stereo not drawn) [1',2-dimethylspiro[2,3-dihydrobenzo[b]furan-3,4'-(hexahydropyridine)]-7-ol] stands 2410 nM.

These data come from BindingDB's records for doi:10.1016/s0960-894x(98)00318-7 (National Taiwan University, 1999).
